Source: patent US10988449B2, “Isoxazole derivatives as nuclear receptor agonists and uses thereof” (IL DONG PHARMACEUTICAL CO., LTD., priority 2017, dated 2021)

Legend:
human FXR = biological target: T1, human FXR (Homo sapiens, UniProt Q96RI1); assay: FXR reporter assay (cellular FXR activities); assay type: cell-based; conditions: for EC50: FXR reporter cells, 24 hours incubation, luciferase, read-out: Reporter Cell EC50; for Emax: read-out: Emax (%) (GW4064 Emax = 100%)
T1 construct: expressed in transfected cells
T1 sequence (Q96RI1 1-486): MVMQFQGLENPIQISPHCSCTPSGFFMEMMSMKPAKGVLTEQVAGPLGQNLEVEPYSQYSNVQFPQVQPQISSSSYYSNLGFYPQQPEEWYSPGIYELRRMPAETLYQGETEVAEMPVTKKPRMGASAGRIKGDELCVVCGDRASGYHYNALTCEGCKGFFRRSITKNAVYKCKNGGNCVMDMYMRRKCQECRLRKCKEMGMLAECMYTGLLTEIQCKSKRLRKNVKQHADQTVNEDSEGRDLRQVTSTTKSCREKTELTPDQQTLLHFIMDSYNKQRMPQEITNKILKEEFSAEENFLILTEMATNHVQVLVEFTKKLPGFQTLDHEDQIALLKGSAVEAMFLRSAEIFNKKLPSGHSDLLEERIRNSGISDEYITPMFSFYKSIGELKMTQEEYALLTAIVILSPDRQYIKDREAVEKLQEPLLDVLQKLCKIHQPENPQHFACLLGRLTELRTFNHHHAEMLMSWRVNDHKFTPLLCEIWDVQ
Procedure, shortened: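 EC50 derived from luciferase read-out after 24 h (37 °C, 5% CO2) treatment of human-FXR-expressing reporter cells with serially diluted compound.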

Mouse pharmacokinetics = assay type: in vivo; set-up: concentration or dose not given beside the values; conditions: mouse; Balb/c male mice; blood samples 15 to 1140 min; LC-MS/MS; read-out: AUC
Method: To evaluate the pharmacokinetics test, the invented 18 compounds of examples were determined as follows. Blood samples are collected at 15, 30, 60, 120, 240, 480, 1140 min. Quantification is by using a LC-MS/MS method specific to the selected compound. Pharmacokinetics parameters are calculated using WinNonLinnon compartmental analysis software.

Structure (SMILES) | EC50 (human FXR) | Emax (human FXR) | AUC (Mouse pharmacokinetics)
O=C(O)c1cc(F)cc(C#Cc2ccc(OCc3c(-c4c(Cl)cccc4Cl)noc3C3CC3)cc2Cl)c1 [Compound I-30, 3-((2-chloro-4-((5-cyclopropyl-3-(2,6-dichlorophenyl)isoxazol-4-yl)methoxy)phenyl)ethynyl)-5-fluorobenzoic acid] | 20 to 60 nM | 92% | 680 ng·h/mL
O=C(O)c1cccc(C#Cc2ccc(OCc3c(-c4c(Cl)cccc4Cl)noc3C3CC3)cc2C(F)(F)F)c1 [Compound I-3, 3-((4-((5-cyclopropyl-3-(2,6-dichlorophenyl)isoxazol-4-yl)methoxy)-2-(trifluromethyl)phenyl)ethynyl)benzoic acid] | 200 to 1000 nM | > 100% | 760 ng·h/mL
Cc1cc(C#Cc2ccc(OCc3c(-c4c(Cl)cccc4Cl)noc3C3CC3)cc2Cl)cc(C(=O)O)c1 [Compound I-63, 3-((2-chloro-4-((5-cyclopropyl-3-(2,6-dichlorophenyl)isoxazol-4-yl)methoxy)phenyl)ethynyl)-5-methylbenzoic acid] | 60 to 200 nM | 78% | 11900 ng·h/mL
CC(C)c1nc2cc(C#Cc3ccc(OCc4c(-c5c(Cl)cccc5Cl)noc4C4CC4)cc3Cl)cc(C(=O)O)c2o1 [Compound I-106, 5-((2-chloro-4-((5-cyclopropyl-3-(2,6-dichlorophenyl)isoxazol-4-yl)methoxy)phenyl)ethynyl)-2-isopropylbenzo[d]oxazole-7-carboxylic acid] | 20 to 60 nM | 96% | 2250 ng·h/mL
O=C(O)c1cncc(C#Cc2ccc(OCc3c(-c4c(Cl)cccc4Cl)noc3C3CC3)cc2Cl)c1 [Compound I-20, 5-((2-chloro-4-((5-cyclopropyl-3-(2,6-dichlorophenyl)isoxazol-4-yl)methoxy)phenyl)ethynyl)nicotinic acid] | 60 to 200 nM | 94% | 438 ng·h/mL
O=C(O)c1ccc(F)c(C#Cc2ccc(OCc3c(-c4c(Cl)cccc4Cl)noc3C3CC3)cc2Cl)c1 [Compound I-38, 3-((2-chloro-4-((5-cyclopropyl-3-(2,6-dichlorophenyl)isoxazol-4-yl)methoxy)phenyl)ethynyl)-4-fluorobenzoic acid] | 60 to 200 nM | 92% | 1000 ng·h/mL
O=C(O)c1cccc(C#Cc2ccc(OCc3c(-c4c(Cl)cccc4Cl)noc3C3CC3)cc2)c1 [Compound I-2, 3-((4-((5-cyclopropyl-3-(2,6-dichlorophenyl)isoxazol-4-yl)methoxy)phenyl)ethynyl)benzoic acid] | > 1000 nM | > 100% | 277 ng·h/mL
O=C(O)c1ccc(Cl)c(C#Cc2ccc(OCc3c(-c4c(Cl)cccc4Cl)noc3C3CC3)cc2Cl)c1 [Compound I-28, 4-chloro-3-((2-chloro-4-((5-cyclopropyl-3-(2,6-dichlorophenyl)isoxazol-4-yl)methoxy)phenyl)ethynyl)benzoic acid] | 60 to 200 nM | 91% | 1780 ng·h/mL
CC(C)Nc1cc(C#Cc2ccc(OCc3c(-c4c(Cl)cccc4Cl)noc3C3CC3)cc2Cl)cc(C(=O)O)c1 [Compound I-54, 3-((2-chloro-4-((5-cyclopropyl-3-(2,6-dichlorophenyl)isoxazol-4-yl)methoxy)phenyl)ethynyl)-5-(isopropylamino)benzoic acid] | ≤ 20 nM | > 100% | 934 ng·h/mL
Nc1cc(C#Cc2ccc(OCc3c(-c4c(Cl)cccc4Cl)noc3C3CC3)cc2Cl)cc(C(=O)O)c1 [Compound I-25, 3-amino-5-((2-chloro-4-((5-cyclopropyl-3-(2,6-dichlorophenyl)isoxazol-4-yl)methoxy)phenyl)ethynyl)benzoic acid] | 60 to 200 nM | 97% | 722 ng·h/mL
O=C(O)c1cc(C#Cc2ccc(OCc3c(-c4c(Cl)cccc4Cl)noc3C3CC3)cc2Cl)cc2[nH]ncc12 [Compound I-99, 6-((2-chloro-4-((5-cyclopropyl-3-(2,6-dichlorophenyl)isoxazol-4-yl)methoxy)phenyl)ethynyl)-1H-indazole-4-carboxylic acid] | 60 to 200 nM | 86% | 205 ng·h/mL
O=C(O)c1ccc(C#Cc2ccc(OCc3c(-c4c(Cl)cccc4Cl)noc3C3CC3)cc2Cl)cc1 [Compound I-16, 4-((2-chloro-4-((5-cyclopropyl-3-(2,6-dichlorophenyl)isoxazol-4-yl)methoxy)phenyl)ethynyl)benzoic acid] | 60 to 200 nM | 91% | 2250 ng·h/mL
O=C(O)c1cc(C#Cc2ccc(OCc3c(-c4c(Cl)cccc4Cl)noc3C3CC3)cc2Cl)c2cn[nH]c2c1 [Compound I-89, 4-((2-chloro-((5-cyclopropyl-3-(2,6-dichlorophenyl)isoxazol-4-yl)methoxy)phenyl)ethynyl)-1H-indazole-6-carboxylic acid] | 20 to 60 nM | 88% | 271 ng·h/mL
CN(C)c1cc(C#Cc2ccc(OCc3c(-c4c(Cl)cccc4Cl)noc3C3CC3)cc2Cl)cc(C(=O)O)c1 [Compound I-21, 3-((2-chloro-4-((5-cyclopropyl-3-(2,6-dichlorophenyl)isoxazol-4-yl)methoxy)phenyl)ethynyl)-5-(dimethylamino)benzoic acid] | ≤ 20 nM | 92% | 6140 ng·h/mL
O=C(O)c1cccc(C#Cc2ccc(OCc3c(-c4c(Cl)cccc4Cl)noc3C3CC3)cc2Cl)c1 [Compound I-15, 3-((2-chloro-4-((5-cyclopropyl-3-(2,6-dichlorophenyl)isoxazol-4-yl)methoxy)phenyl)ethynyl)benzoic acid] | 60 to 200 nM | 82% | 521 ng·h/mL
C#Cc1cc(C#Cc2ccc(OCc3c(-c4c(Cl)cccc4Cl)noc3C3CC3)cc2Cl)cc(C(=O)O)c1 [Compound I-32, 3-((2-chloro-4-((5-cyclopropyl-3-(2,6-dichlorophenyl)isoxazol-4-yl)methoxy)phenyl)ethynyl)-5-ethynylbenzoic acid] | 60 to 200 nM | 94% | –
CN(C)CCn1ccc2c(C#Cc3ccc(OCc4c(-c5c(Cl)cccc5Cl)noc4C4CC4)cc3Cl)cc(C(=O)O)cc21 [Compound I-92, 4-((2-chloro-4-((5-cyclopropyl-3-(2,6-dichlorophenyl)isoxazol-4-yl)methoxy)phenyl)ethynyl)-1-(2-(dimethylamino)ethyl)-1H-indole-6-carboxylic acid] | 20 to 60 nM | 87% | –
O=C(O)c1cc(C#Cc2ccc(OCc3c(-c4c(Cl)cccc4Cl)noc3C3CC3)cc2Cl)ccc1Cl [Compound I-29, 2-chloro-5-((2-chloro-4-((5-cyclopropyl-3-(2,6-dichlorophenyl)isoxazol-4-yl)methoxy)phenyl)ethynyl)benzoic acid] | 60 to 200 nM | 93% | –
O=C(O)c1ccnc(C#Cc2ccc(OCc3c(-c4c(Cl)cccc4Cl)noc3C3CC3)cc2Cl)c1 [Compound I-18, 2-((2-chloro-4-((5-cyclopropyl-3-(2,6-dichlorophenyl)isoxazol-4-yl)methoxy)phenyl)ethynyl)isonicotinic acid] | 200 to 1000 nM | 87% | –
CCc1nc2cc(C#Cc3ccc(OCc4c(-c5c(Cl)cccc5Cl)noc4C4CC4)cc3Cl)cc(C(=O)O)c2o1 [Compound I-104, 5-((2-chloro-4-((5-cyclopropyl-3-(2,6-dichlorophenyl)isoxazol-4-yl)methoxy)phenyl)ethynyl)-2-ethylbenzo[d]oxazole-7-carboxylic acid] | ≤ 20 nM | 94% | –
